According to the NIST ThermoML archive (doi:10.1016/j.tca.2008.03.009):
Numbers after ± are expanded uncertainties.

Assay: molar heat capacity at constant pressure
Conditions: 328.1 K; 101.33 kPa; Crystal; Small sample (50 mg) DSC

Q: With `[BH4-].[Na+]` [sodium tetrahydroborate] as the compound, how does the “molar heat capacity at constant pressure” value read?
A: 111.61 ± 2.3 J/K/mol
